# Assay results reported in patent EP0382185A2, “Carbostyril derivatives” (OTSUKA PHARMACEUTICAL CO., LTD., priority 1989, dated 1990).
# Tested on: increase of diastolic pressure caused by the intravenous administration of Arg-vasopressin
# Experiment: Anti-vasopressor activity in vivo
# Parameters: species or system male SD rat
# Settings: 0.05 h; pith rat; test compound intravenous; Arg-vasopressin (30 mU/kg) intravenously 3 minutes after the test compound; dose reducing the increase of diastolic pressure to 50 % of control
smiles,measurement,value
"COc1ccc(C(=O)N2CCC(N3C(=O)CCc4ccc(F)cc43)CC2)c(OC)c1 [Example 311, 7-Fluoro-1-[1-(2,4-dimethoxybenzoyl)-4-piperidinyl]-3,4-dihydrocarbostyril]",ED50,0.3 mg/kg
